Blank lines part the entries; values can stand above or below the molecule they belong to.
What was measured:
KinIJ = target: T1, KinIJ (Streptomyces murayamaensis, UniProt A0A385LMJ2); assay: LC-MS detection of L-hydrazinosuccinate; assay type: biochemical; settings: methyl or benzyl viologen, anaerobic
T1 construct: gene kinJ; heterodimer, His6 tag on one or both proteins, expressed aerobically in E. coli and purified anaerobically; KinI co-purified or added separately; with Ferredoxin KinI

KinJ = target: T2, KinJ (Streptomyces murayamaensis, UniProt A0A385LMJ2); assay: EPR spectroscopy; assay type: binding; settings: ferric enzyme; axial ligand of heme; no ferredoxin
T2 construct: monomeric when expressed alone; contains heme b

[1] = target: FzmP, co-expressed with KinI (not stated (Streptomyces sp. S-149 or Streptomyces sp. XY332 cloned)); assay: SEC; anaerobic size exclusion chromatography of proteins expressed alone or co-expressed and purified
[2] = target: T3, KinJ from Streptomyces murayamaensis ATCC 21414 (tag placement not stated for the experiment) (Streptomyces murayamaensis ATCC 21414, UniProt A0A385LMJ2); assay: reciprocal His6 co-purification (pull-down) and anaerobic SEC of the co-expressed complex; co-expressed in E. coli and purified anaerobically as a complex
T3 chain: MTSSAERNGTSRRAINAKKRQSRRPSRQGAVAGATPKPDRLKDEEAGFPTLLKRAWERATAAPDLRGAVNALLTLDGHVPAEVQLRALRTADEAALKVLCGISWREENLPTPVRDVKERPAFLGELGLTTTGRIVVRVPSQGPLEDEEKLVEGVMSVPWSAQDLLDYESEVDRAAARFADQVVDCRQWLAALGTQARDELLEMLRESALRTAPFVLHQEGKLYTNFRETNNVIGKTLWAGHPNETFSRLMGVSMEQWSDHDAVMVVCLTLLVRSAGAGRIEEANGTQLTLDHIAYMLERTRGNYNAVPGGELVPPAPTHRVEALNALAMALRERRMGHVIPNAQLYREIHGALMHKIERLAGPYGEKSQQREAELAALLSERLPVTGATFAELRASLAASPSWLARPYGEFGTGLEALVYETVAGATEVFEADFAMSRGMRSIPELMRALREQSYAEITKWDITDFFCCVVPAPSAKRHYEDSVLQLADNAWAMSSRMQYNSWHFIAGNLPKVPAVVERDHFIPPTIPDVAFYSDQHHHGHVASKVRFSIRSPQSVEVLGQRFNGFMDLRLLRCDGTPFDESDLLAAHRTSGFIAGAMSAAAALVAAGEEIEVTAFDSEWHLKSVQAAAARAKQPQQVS

Molecule: N[C@@H](CC(=O)O)C(=O)O [L-aspartate]
LC-MS detection of L-hydrazinosuccinate (KinIJ; NaNO2, sodium dithionite): indicating the formation of an N–N bond-containing product from L-Asp and NO2^–

Molecule: O=NO [NO2^–]
EPR spectroscopy (KinJ): addition of NO2^– (a strong field ligand) was associated with the formation of a 6-coordinate rhombic
LC-MS detection of L-hydrazinosuccinate (KinIJ; L-aspartate, sodium dithionite, 15N-labelled nitrite also used): indicating the formation of an N–N bond-containing product from L-Asp and NO2^–

The remaining lines, values ahead:

stoichiometry N [1]: 2
Molecule: FzmP, co-expressed with KinI (enzyme)

binding result [2]: binds
B1: KinI (ferredoxin; tag placement not stated for the experiment) (protein)
chain: MPTNTSDDSLDETVEGSVSGRDKLIAERTRSETWKKPPRRIERAECITCDTCLRACPPEFNAIFDNGLDVVIIPELCSGCPKCVLECPVDCIYVDEDWTPTTDEMWKHIGLTAEGVS

— doi:10.1101/2025.05.27.656397, “A new heme enzyme family forms hydrazine groups in diverse biosynthetic pathways” (bioRxiv, 2025)
